From PubChem BioAssay (NCI) come the findings set out here.

Among the test systems are MALME-3M melanoma; HT29 colon; SNB-19 CNS; U251 CNS; SK-MEL-5 melanoma; COLO 205 colon; SK-MEL-28 melanoma; OVCAR-5 ovarian.
Holding throughout (experiment): DTP human tumour cell line panel, 48 h

Molecules are shown by their SMILES.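 These data come from cells grown in 96-well plates and exposed to compound for 48 hours at five concentrations. TGI denotes the concentration required for complete inhibition of growth.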

Broadly, the TGI is the concentration giving total growth inhibition. The low end stands for more potent growth arrest, the high end for less potent growth arrest. For `Cc1cn(C2C=CC(=O)C(C)O2)c(=O)[nH]c1=O` (centres undefined), the TGI in the test on MALME-3M melanoma came out at 25.9 µM; in the test with HT29 colon, 33.4 µM; with SNB-19 CNS, 43.9 µM; in the test on U251 CNS it was 28.6 µM; with SK-MEL-5 melanoma, 28.1 µM; in the test with COLO 205 colon it was 32 µM. The same molecule returned a TGI in the test on SK-MEL-28 melanoma of 28.1 µM.

As for `Cn1cc2ccccc2c1-c1nc(F)nc(Oc2ccc3c(c2)CC[C@@H]2C3CC[C@]3(C)C(O)CCC23)n1` (some centres undefined), the TGI in the test on MALME-3M melanoma stood at 39.9 µM; with OVCAR-5 ovarian, 33.3 µM; in the test on SNB-19 CNS, 34.7 µM; in the test with U251 CNS, 28 µM; with SK-MEL-5 melanoma it was 30.2 µM; in the test with COLO 205 colon, 44.2 µM. Further, the TGI in the test on SK-MEL-28 melanoma stood at 33.2 µM.

`CSC(=S)N(C)NC(=O)c1cccc(C(=O)NN(C)C(=S)SC)n1`: the TGI with OVCAR-5 ovarian is above 100 µM; in the test with HT29 colon, above 100 µM; in the test with SNB-19 CNS it was above 100 µM; with U251 CNS, 54.6 µM; with SK-MEL-5 melanoma it was above 100 µM; in the test on COLO 205 colon, above 100 µM. In the test with SK-MEL-28 melanoma, this molecule registered a TGI above 100 µM.

Turning to `COC1=NN2C(OC)(c3ccccc3)c3c(-c4ccccc4)sc(-c4ccccc4)c3C2(c2ccccc2)S1` (centres undefined), the TGI in the test with MALME-3M melanoma, in the test with OVCAR-5 ovarian, in the test with HT29 colon, in the test with SNB-19 CNS, in the test on U251 CNS and in the test on COLO 205 colon was above 100 µM throughout. In the test on SK-MEL-28 melanoma, this molecule yielded a TGI above 100 µM.

With `CSc1nc2c(nc(N)n2C2OCC(O)C(O)C2O)c(=O)[nH]1` (centres undefined), the TGI in the test with MALME-3M melanoma, with HT29 colon, in the test on SNB-19 CNS, in the test with U251 CNS, in the test on SK-MEL-5 melanoma and with COLO 205 colon was above 100 µM in each case. The molecule also had a TGI in the test on SK-MEL-28 melanoma above 100 µM.

With `CC(C)C(/C=C/c1ccccc1)=N\NC(=O)N/N=C(/C=C/c1ccccc1)C(C)C`, the TGI with OVCAR-5 ovarian was above 100 µM; in the test on HT29 colon, above 100 µM; in the test with SNB-19 CNS, above 100 µM; with U251 CNS, above 100 µM; with SK-MEL-5 melanoma it was 53.7 µM; in the test on COLO 205 colon it was 44.3 µM. The TGI in the test on SK-MEL-28 melanoma was above 100 µM.

Regarding `CC1(C)CCc2cc3c(cc2O1)OC(C)(C)C1c2c(ccc4c2CCC(C)(C)O4)OC31` (centres undefined), the TGI in the test with OVCAR-5 ovarian, in the test on HT29 colon, in the test on U251 CNS, in the test with SK-MEL-5 melanoma and in the test with COLO 205 colon was above 100 µM each time.

Take `O=C1c2cnccc2Cc2cccc3c2N1c1ccccc1S3`: the TGI with MALME-3M melanoma is 62.4 µM; in the test with HT29 colon, 74.8 µM; in the test with SNB-19 CNS it was 74.6 µM; in the test with U251 CNS, 34 µM; in the test with SK-MEL-5 melanoma, 39 µM; in the test with COLO 205 colon it was 59.2 µM. Besides, the TGI in the test with SK-MEL-28 melanoma was found to be 78.2 µM.

For `CCOC(=O)CNC(SC)=C(C#N)C#N`, the TGI in the test with MALME-3M melanoma, in the test on OVCAR-5 ovarian, in the test with HT29 colon, in the test on SNB-19 CNS, with U251 CNS and in the test on SK-MEL-5 melanoma was above 100 µM in each case. This molecule displayed a TGI in the test with COLO 205 colon above 100 µM.

For `COc1cc2c(c3oc(-c4ccc5c(c4)OCO5)c(O)c(=O)c13)CCC(C)(C)O2`, the TGI with HT29 colon, in the test with SNB-19 CNS, in the test on SK-MEL-5 melanoma, in the test with COLO 205 colon and with SK-MEL-28 melanoma was above 100 µM in each case.

Consider `CCN(CC)C(=O)c1c(N2CCOCC2)cc(N(CC)CC)oc1=O`, for which the TGI with MALME-3M melanoma, in the test on HT29 colon, in the test on SNB-19 CNS, with U251 CNS, with COLO 205 colon and with SK-MEL-28 melanoma was above 100 µM each time.

Turning to `CC(C)O/C=C1\C(=O)C2(SCCS2)[C@H]2CCCC[C@@H]12`, the TGI is above 100 µM with MALME-3M melanoma; above 100 µM in the test with SNB-19 CNS; above 100 µM in the test with U251 CNS; above 100 µM in the test with SK-MEL-5 melanoma; 33.4 µM with COLO 205 colon; above 100 µM in the test on SK-MEL-28 melanoma.

In the case of `COc1ccc2oc(-c3ccncc3)cc(=O)c2c1`, the TGI in the test with MALME-3M melanoma, in the test on OVCAR-5 ovarian, in the test with HT29 colon, in the test on SNB-19 CNS, in the test on U251 CNS and in the test with COLO 205 colon was above 100 µM each time. In addition, the TGI in the test with SK-MEL-28 melanoma is above 100 µM.

Take `CCOC(=O)c1c(-c2[nH]c(C(=O)OCc3ccccc3)c(C)c2C(=O)OCC)[nH]c(C(=O)OCc2ccccc2)c1C`: the TGI in the test on MALME-3M melanoma, with OVCAR-5 ovarian, in the test with HT29 colon, in the test with U251 CNS, in the test with SK-MEL-5 melanoma and in the test with COLO 205 colon was above 100 µM each time. Besides, in the test on SK-MEL-28 melanoma, the TGI is above 100 µM.

For `CC(=O)Nc1ccc(-c2nnc(SCC(=O)Nc3ccccc3[N+](=O)[O-])o2)cc1`, the TGI in the test on MALME-3M melanoma, in the test on OVCAR-5 ovarian, with HT29 colon, with U251 CNS, with SK-MEL-5 melanoma and with COLO 205 colon was above 100 µM in each case. In addition, the TGI with SK-MEL-28 melanoma was above 100 µM.
